How the values were obtained:
tail wound bleeding = assay: Tail bleeding time of mouse; assay type: in vivo, ICR mouse; conditions: mouse tail cut; 0.5 KU/kg via tail vein 30 min before cut; vs physiological saline control
Experimental: Healthy male ICR mice having a weight of 18-22 g were distributed randomly into […] consisting of 10 mice per group. The animals received by injection (0.1 ml/10 g) via the tail vein one of following four compositions suspended in physiological saline: control, 0.5 KU/kg Reptilase, 25 mg/kg Sodium Dencichine, or 1 mg/kg solid dispersion composition of Dencichine prepared according to Example 1. Thirty minutes following injection the tail of each mouse was cut 0.5 cm from the tail tip. The cut tail wound bleeding of each mouse was monitored by scrubbing the tail tip with a filter paper at timed intervals (30 s, 60 s, and every 10 s thereafter) until blood could not be seen on the filter paper.

acute gastric bleeding = assay: Gastrorrhagia of rats: acute gastric bleeding time and extent; assay type: in vivo, Sprague-Dawley rat; conditions: rat gastric wound; 0.5 KU/kg via femoral vein 30 min before wounding; vs physiological saline control
Experimental: Healthy Sprague-Dawley rats having a weight of 180-220 g were distributed randomly into four groups consisting of 10 rats per group. The rats in each group were fed only water for the twelve-hour period prior to operation. Each rat was anaesthetized by receiving an injection of sodium pentobarbital (30 mg/kg) in the abdominal cavity. An incision was made in the upper abdominal cavity of each animal and the stomach exposed to air and minced along the greater curvature. The stomach was vacated for each animal and cleaned with sterile cotton swab.
The animals received by injection (1 ml/100 g) via a femoral vein one of following four compositions suspended in physiological saline: control, 0.5 KU/kg Reptilase, 25 mg/kg Sodium Dencichine, or 1 mg/kg solid dispersion composition of Dencichine prepared according to Example 1. Thirty minutes following the injection, one piece of the gastric body from each animal was excised using biopsy forceps to establish acute gastric bleeding. The bleeding time and extent was recorded for each rat until the wound stopped bleeding.

liver wound bleeding = assay: Rabbit liver hemorrhage: bleeding time and extent; assay type: in vivo; conditions: 0.5 KU/kg injected via ear vein at wounding, vs physiological saline control
Experimental: Healthy rabbits having a weight of 2-2.5 kg were distributed randomly into four groups consisting of 6 rabbits per group. The rabbits in each group were fed only water for the twelve-hour period prior to operation. Each rabbit was anaesthetized by receiving an injection of sodium pentobarbital (30 mg/kg) in the abdominal cavity. An incision was made in the upper abdominal cavity of each animal and a piece of the liver was removed leaving a wound 2 cm in length, 1 cm in width and 0.5 cm in height.
At the time of wounding, the animals received by injection (2 ml/kg) via an ear vein one of following four compositions suspended in physiological saline: control, 0.5 KU/kg Reptilase, 25 mg/kg Sodium Dencichine, or 1 mg/kg solid dispersion composition of Dencichine prepared according to Example 1. Following the injection, the bleeding time and extent was recorded for each rabbit until the liver wound stopped bleeding.

Reptilase: Haemostatic comparator injected at 0.5 KU/kg
significantly shortened: time required to stop the tail wound bleeding (tail wound bleeding) | time and extent of the wound bleeding (acute gastric bleeding) | time and extent of the wound bleeding (liver wound bleeding)

— US8362081B2, “Methods for treating hemorrhagic conditions” (priority 2009, dated 2013)
